Assay results from article doi:10.1101/2025.05.21.654962v1 (biorxiv, 2025).
Each block holds one molecule with its values, some of them ahead of it.

Key:
[1] = target: T1, NgUPPS (undecaprenyl diphosphate synthase) (Neisseria gonorrhoeae, UniProt Q5F5X2); experiment: crystal structure; type: binding
T1 sequence (Q5F5X2 1-248): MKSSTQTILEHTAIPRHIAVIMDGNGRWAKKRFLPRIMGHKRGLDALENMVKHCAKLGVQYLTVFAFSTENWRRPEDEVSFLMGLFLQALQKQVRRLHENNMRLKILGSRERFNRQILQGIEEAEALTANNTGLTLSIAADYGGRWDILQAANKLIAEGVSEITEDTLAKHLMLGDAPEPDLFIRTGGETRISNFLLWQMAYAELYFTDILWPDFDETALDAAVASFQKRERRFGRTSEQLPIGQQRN

[2] = target: T1, NgUPPS (undecaprenyl diphosphate synthase); experiment: pyrophosphatase-coupled phosphate release, Biomol Green; type: biochemical

SMILES: Clc1ccc2nc(N3CCNCC3)sc2c1 [PS-0394]
- crystal structure (soaking); WAC-MS hit ([1]; region 3, code printed PS-0394 with the PDB id but PS-3094): 9OJB (PS-0394)

SMILES: O=C(O)c1ncccc1F [GF-0701]
- crystal structure (soaking); WAC-MS hit ([1]; region 1, two sites): 9OIW (GF-0701)

SMILES: O=C(O)c1cn2cc(Cl)ccc2n1 [4R-0623]
- crystal structure (soaking); WAC-MS hit ([1]; region 1, two sites): 9OHJ (4R-0623)

SMILES: Nc1cc(-c2ccc(C(F)(F)F)cc2)no1 [DA-0854]
- crystal structure (soaking); WAC-MS hit ([1]; region 4 (distal end of tunnel)): 9OJ1 (DA-0854)

SMILES: Nc1cc(-c2cccc(C(F)(F)F)c2)no1 [DA-0841]
- crystal structure (soaking); WAC-MS hit ([1]; region 2): 9OIY (DA-0841)

SMILES: Cc1ccc(O)c(-c2cc[nH]n2)c1 [BA-0843]
- crystal structure (soaking); WAC-MS hit ([1]; region 3): 9OHP (BA-0843)

SMILES: O=C(O)c1ccc(C(F)(F)F)cn1 [FC-0609]
- crystal structure (soaking); WAC-MS hit ([1]; region 4): 9OJA (FC-0609)

SMILES: O=C(O)c1cc(C(F)(F)F)ccn1 [FD-0739]
- crystal structure (soaking); WAC-MS hit ([1]; region 2): 9OI6 (FD-0739)

SMILES: Brc1ccsc1-c1ccn[nH]1 [4W-0801]
- crystal structure (soaking); WAC-MS hit ([1]; region 3 (hydrophobic core)): 9OIV (4W-0801)

SMILES: O=C(Nc1cccc(Oc2ccc(C(=O)O)c(C(=O)O)c2)c1)c1ccc(-c2ccccc2)cc1 [compound 10, 4-{3-[(biphenyl-4-ylcarbonyl)amino]phenoxy}benzene-1,2-dicarboxylic acid]
- IC50 [2]: 3.4 µM

SMILES: O=C(O)c1ccc(Br)cn1 [5Br-P]
- crystal structure (soaking); WAC-MS hit ([1]; region 2): 9OJE (5Br-P)

Now from value to molecule:

- crystal structure (soaking); WAC-MS hit ([1]; region 3): 9OI5 (PS-4845)
SMILES: Brc1ccc(-c2cc[nH]n2)s1 [PS-4845]

- crystal structure (soaking); WAC-MS hit ([1]; region 1, two sites): 9OHG (PS-5570)
SMILES: OCc1cccs1 [PS-5570]

- crystal structure (soaking); WAC-MS hit ([1]; region 1): 9OHO (PS-3756)
SMILES: NCc1cccc(O)c1 [PS-3756]

- crystal structure (soaking); WAC-MS hit ([1]; region 1, two sites): 9OHI (PS-5549)
SMILES: Cc1nonc1CO [PS-5549]

- crystal structure (soaking); WAC-MS hit ([1]; region 1): 9OHB (PS-5485)
SMILES: OCc1ccccc1Cl [PS-5485]
